Drawing on US7342017B2, “1,2,5-Thiadiazol-3-yl-piperazine therapeutic agents useful for treating pain, depression and anxiety” (Euro-Celtique S.A., priority 2002, dated 2008), this text covers IC50 for one compound.

Assay [1] concerns the target T1, Human VR1 Receptor (Homo sapiens, UniProt Q8NER1). The assay is described as follows: Inhibition of capsaicin-induced activation of VR1. The format is cell-based. To be noted: mean ± spread, (n) = number of experiments, read-out: Inhibition of capsaicin-induced activation IC50 (nM) Mean IC50 ± SEC (n). The source says: (§1) Binding of the Thiadiazolylpiperazine Compounds to the Human VR1 Receptor
(§2) Methods for assaying compounds capable of inhibiting VR1 are well known to those skilled in the art, for example, those methods disclosed in U.S. Pat. No. 6,239,267 to Duckworth et al.; U.S. Pat. No. 6,406,908 to McIntyre et al.; or U.S. Pat. No. 6,335,180 to Julius et al.

The target of assay [2] is T1, Human VR1 Receptor. Kind of assay: Inhibition of pH-induced activation of VR1. The format is cell-based. To be noted: mean ± spread, (n) = number of experiments, read-out: Inhibition of pH-induced activation IC50 (nM) Mean IC50 ± SEC (n).
Description: as §1, §2

T1 sequence (Q8NER1 whole entry): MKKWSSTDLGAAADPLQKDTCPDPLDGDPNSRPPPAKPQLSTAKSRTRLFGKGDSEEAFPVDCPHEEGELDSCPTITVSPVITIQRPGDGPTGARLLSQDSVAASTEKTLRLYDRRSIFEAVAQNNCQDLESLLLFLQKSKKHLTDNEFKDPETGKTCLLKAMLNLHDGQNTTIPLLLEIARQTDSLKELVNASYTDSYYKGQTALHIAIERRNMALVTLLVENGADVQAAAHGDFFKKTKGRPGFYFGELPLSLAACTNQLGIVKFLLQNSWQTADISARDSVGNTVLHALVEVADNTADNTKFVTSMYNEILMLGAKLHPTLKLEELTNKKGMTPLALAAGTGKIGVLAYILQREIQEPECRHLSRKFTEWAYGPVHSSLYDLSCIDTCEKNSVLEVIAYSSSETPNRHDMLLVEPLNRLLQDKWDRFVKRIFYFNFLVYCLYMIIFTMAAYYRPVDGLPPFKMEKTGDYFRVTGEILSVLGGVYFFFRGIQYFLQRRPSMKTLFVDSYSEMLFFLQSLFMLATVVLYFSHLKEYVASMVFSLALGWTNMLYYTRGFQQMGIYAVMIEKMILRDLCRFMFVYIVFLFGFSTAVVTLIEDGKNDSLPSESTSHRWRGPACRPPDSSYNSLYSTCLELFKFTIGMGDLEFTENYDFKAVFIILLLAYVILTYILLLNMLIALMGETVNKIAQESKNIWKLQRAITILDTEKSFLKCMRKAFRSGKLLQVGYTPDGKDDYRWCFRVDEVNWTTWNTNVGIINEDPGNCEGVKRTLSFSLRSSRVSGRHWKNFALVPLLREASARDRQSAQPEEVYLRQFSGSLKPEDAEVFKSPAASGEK

On to `CC(C)c1ccc(NC(=O)N2CCN(c3nsnc3Cl)CC2)cc1`, for which the IC50 (commonly the concentration that gives 50% inhibition) is 374 ± 233 nM on Human VR1 Receptor [1] and 668 ± 265 nM on Human VR1 Receptor [2].
